Assay results: PMC7284125, “Identification of annotated bioactive molecules that impair motility of the blood fluke Schistosoma mansoni” (International Journal for Parasitology: Drugs and Drug …, 2020)
Like-named read-outs stand apart in the source and are kept apart here. Residues, ends and D or L forms follow the SMILES beside them. *: point of attachment. Cbz = O=C(OCc1ccccc1)*

Columns and labels:
schistosomes [1] = test system: schistosomes; parameters: method as in Guerra-Sa et al., 2005; conditions: treated mice; ref Guerra-Sa et al., 2005; cited from earlier work
Sm5HTR = Sm5HTR (Schistosoma mansoni, UniProt G4V5G4); test: cAMP luminescence (GloSensor) assay, HEK293 cells expressing Sm5HTR; format: cell-based, S. mansoni; conditions: compound incubation followed by 50 μM 5-HT
Chain of Sm5HTR (G4V5G4 entry or part of it): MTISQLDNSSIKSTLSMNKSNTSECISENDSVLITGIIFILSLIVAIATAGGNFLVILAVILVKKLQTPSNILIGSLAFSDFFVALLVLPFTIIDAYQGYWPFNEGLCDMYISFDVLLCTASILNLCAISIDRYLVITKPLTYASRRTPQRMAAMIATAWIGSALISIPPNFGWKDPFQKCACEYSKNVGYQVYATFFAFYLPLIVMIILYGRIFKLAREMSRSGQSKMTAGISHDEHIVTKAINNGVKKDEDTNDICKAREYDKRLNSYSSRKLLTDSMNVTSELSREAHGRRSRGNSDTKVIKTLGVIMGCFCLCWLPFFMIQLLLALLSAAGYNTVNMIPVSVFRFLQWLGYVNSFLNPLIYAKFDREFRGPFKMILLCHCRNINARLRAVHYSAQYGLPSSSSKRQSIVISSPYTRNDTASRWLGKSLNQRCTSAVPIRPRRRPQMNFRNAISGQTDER

[2] = test system: S. mansoni schistosomulae; test: Phenotypic primary screen assay on schistosomulae (phenotype; viability by methylene blue dye exclusion); format: cell-based, Schistosoma mansoni; conditions: for Phenotype / Viability (%): three-day-old schistosomulae, 10 μM, 24 h; for Phenotype: estimated 5 days post compound exposure; for Viability (%): calculated 5 days post compound exposure
How it was run: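 Parasites lacking contraction/relaxation cycles and showing dark internal granulations counted as dead. Movement and body shape were compared with DMSO-treated controls under a stereo microscope at 24 h and at five days of exposure. Larvae came from infected snails shed under light for 2 h at 32 °C.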

[3] = test system: S. mansoni schistosomulae; test: Motility assay on schistosomulae (pixel displacement, relative to DMSO control); format: cell-based, Schistosoma mansoni; conditions: for activity at 1 µM: Schistosoma mansoni, read-out: Fractional motility; for motility phenotype in words: after 24 h exposure
How it was run: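 Motility was scored by pixel displacement from 1-min videos (10 frames/s) and compared with DMSO controls. Schistosomulae (200/well, Opti-MEM, 5% dialyzed FBS, no antibiotics) received compound at 1 or 10 μM for 24 h; selected hits were also followed at 1, 3, 6 and 12 h.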

[4] = test system: naïve Glo HEK293 cells (no receptor); test: cAMP luminescence (GloSensor) assay on naïve Glo HEK293 cells (no receptor); format: cell-based, human; conditions: for effect on luminescence evoked by forskolin: 20 μM forskolin
Experimental: The SmGPR2 sequence previously identified ([El-Shehabi and Ribeiro, 2010]) was codon optimized for mammalian expression and subcloned in the vector pCI-neo (Addgene, USA) using the XbaI and NotI restriction enzymes. A FLAG fusion tag ([…]) was introduced at the N-terminal end of the receptor sequence. Stable transfection of HEK293 cells (ATCC; CRL-1573) was performed using the X-tremeGENE 9 DNA transfection reagent (Sigma Aldrich). Cells were then cultured at 37 °C, 5% CO2 in Opti-MEM supplemented with 5% FBS and maintained in 400 μg/mL G418 (Sigma Aldrich) for selection of transformants. […] All cell lines expressing S. mansoni GPCRs were then transfected with the GloSensor encoding plasmid p22F (Promega) and media was supplemented with 100 μg/mL hygromycin for stable expression (ThermoFisher).
(§1) Adherent HEK293 cells were seeded at a density of 5 x 10^4 cells/well (96-well plate) in Opti-MEM without FBS or antibiotics and incubated overnight at 37 °C and 5% CO2 prior to the assay. In place of the media, 100 μL HBSS supplemented with 0.1% bovine serum albumin (BSA), 500 μM 3-isobutyl-1-methylxanthine (IBMX, Sigma Aldrich), 20 mM HEPES (pH 7.4) and 1 mg/mL D-luciferin (Goldbio) was added to each well. After a 2 h incubation period at room temperature, luminescence background was recorded, and compounds and control ligands were added at 10X concentration. Immediately after compound addition, luminescence was read over a 45 min period to detect compounds stimulating cAMP release through receptor activation. […] For each assay, luminescence responses were recorded in triplicate and repeated with four independant cell batches. Compounds were also added to naïve Glo HEK293 cells (no receptor) and the robustness of the assay was calculated as: Z^'=1−3×(SDmax+SDmin)/Meanmax−Meanmin with max and min referring respectively to cells expressing GPCRs and Glo (no receptor) cells. Cellular viability was assessed using a CellTiter Glo 2.0 kit (Promega). Glo cells were exposed to 10 μM of each hit compound for 3 h in Opti-MEM at 37 °C, 5% CO2. An equimolar concentration of tamoxifen (Sigma Aldrich) was used as a positive control. 2X cell lysis media was then added and end-point luminescence recorded after a 10 min stabilization time.

S. mansoni adult worms = test: Motility assay on adult parasites (pixel displacement, relative to DMSO control); format: cell-based, Schistosoma mansoni; conditions: 10 μM; for Fractional motility: secondary screen
How it was run: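 Unpaired adult worms from mice 6 weeks post-infection kept in OPTI-MEM with 5% dialyzed FBS and exposed to compounds at 1 and 10 μM for 24 h. Motility filmed 1 min at 10 frames/s, quantified by pixel displacement versus DMSO-treated worms; recovery followed up to five days after washout.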

[5] = test system: S. mansoni schistosomulae; test: Phenotypic primary screen assay on schistosomulae (phenotype; viability by methylene blue dye exclusion); format: cell-based; conditions: Schistosoma mansoni; three-day-old schistosomulae, 10 μM, 24 h; calculated 5 days post compound exposure; read-out: Viability (%)
Glo HEK293 cells = test: Cellular viability, CellTiter Glo 2.0; format: cell-based, human; conditions: 10 μM, 3 h
Experimental: as §1, with “An equimolar concentration of tamoxifen (Sigma Aldrich) was used as a positive control.” left out

adult schistosomes = test system: adult schistosomes; parameters: method as in Neves et al., 2016; conditions: transient hyperactivity, ref Neves et al., 2016, cited from earlier work
SmD2 = SmD2 (Schistosoma mansoni, UniProt G4LUJ1); test: cell-based; format: cell-based
Chain of SmD2 (G4LUJ1 entry or part of it): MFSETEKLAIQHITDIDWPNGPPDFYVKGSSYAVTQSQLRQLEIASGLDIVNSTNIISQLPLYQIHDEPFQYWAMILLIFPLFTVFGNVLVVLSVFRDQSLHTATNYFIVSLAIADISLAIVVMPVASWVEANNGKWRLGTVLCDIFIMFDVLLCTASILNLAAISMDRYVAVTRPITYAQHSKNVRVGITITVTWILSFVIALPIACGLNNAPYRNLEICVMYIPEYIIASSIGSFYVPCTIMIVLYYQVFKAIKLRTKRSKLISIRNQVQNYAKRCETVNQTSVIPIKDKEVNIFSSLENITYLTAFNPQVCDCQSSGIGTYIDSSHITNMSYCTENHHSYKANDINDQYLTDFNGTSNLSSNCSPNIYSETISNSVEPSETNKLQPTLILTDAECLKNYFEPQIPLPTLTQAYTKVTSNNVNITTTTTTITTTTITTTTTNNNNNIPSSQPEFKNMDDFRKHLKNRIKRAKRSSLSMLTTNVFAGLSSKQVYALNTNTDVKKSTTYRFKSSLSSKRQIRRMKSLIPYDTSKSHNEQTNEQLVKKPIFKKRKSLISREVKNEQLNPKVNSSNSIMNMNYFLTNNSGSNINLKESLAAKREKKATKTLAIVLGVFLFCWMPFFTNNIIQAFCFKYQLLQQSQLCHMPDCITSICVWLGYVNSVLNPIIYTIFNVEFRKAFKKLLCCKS

schistosomes [6] = test system: schistosomes; parameters: method as in Bibo-Verdugo et al., 2019; conditions: in vitro; ref Bibo-Verdugo et al., 2019; cited from earlier work
proteasome = test system: proteasome; parameters: method as in Bibo-Verdugo et al., 2019; conditions: in vitro; ref Bibo-Verdugo et al., 2019; cited from earlier work
schistosomes [7] = test system: schistosomes; parameters: method as in Marcellino et al., 2012; conditions: ref Marcellino et al., 2012; cited from earlier work
SmGPR2 = SmGPR2 (Schistosoma mansoni, UniProt G4VIY8); test: cell-based
Chain of SmGPR2 (G4VIY8 entry or part of it): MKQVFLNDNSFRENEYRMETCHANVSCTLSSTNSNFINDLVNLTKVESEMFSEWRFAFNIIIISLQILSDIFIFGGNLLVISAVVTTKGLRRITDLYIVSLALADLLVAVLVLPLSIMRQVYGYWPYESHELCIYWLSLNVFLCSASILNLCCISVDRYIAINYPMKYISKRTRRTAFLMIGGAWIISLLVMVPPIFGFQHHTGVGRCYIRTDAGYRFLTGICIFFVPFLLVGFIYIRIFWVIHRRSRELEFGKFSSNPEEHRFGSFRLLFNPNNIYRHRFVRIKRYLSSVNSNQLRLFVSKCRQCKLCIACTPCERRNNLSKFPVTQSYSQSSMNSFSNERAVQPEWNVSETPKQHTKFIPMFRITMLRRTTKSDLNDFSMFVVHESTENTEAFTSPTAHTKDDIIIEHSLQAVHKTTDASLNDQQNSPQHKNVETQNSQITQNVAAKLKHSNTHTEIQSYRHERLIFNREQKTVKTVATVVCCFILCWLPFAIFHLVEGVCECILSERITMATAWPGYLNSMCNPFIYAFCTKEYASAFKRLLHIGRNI
Experimental: The SmGPR2 sequence previously identified ([El-Shehabi and Ribeiro, 2010]) was codon optimized for mammalian expression and subcloned in the vector pCI-neo (Addgene, USA) using the XbaI and NotI restriction enzymes. A FLAG fusion tag ([…]) was introduced at the N-terminal end of the receptor sequence. Stable transfection of HEK293 cells (ATCC; CRL-1573) was performed using the X-tremeGENE 9 DNA transfection reagent (Sigma Aldrich). Cells were then cultured at 37 °C, 5% CO2 in Opti-MEM supplemented with 5% FBS and maintained in 400 μg/mL G418 (Sigma Aldrich) for selection of transformants. […]
Adherent HEK293 cells were seeded at a density of 5 x 10^4 cells/well (96-well plate) in Opti-MEM without FBS or antibiotics and incubated overnight at 37 °C and 5% CO2 prior to the assay. […] After a 2 h incubation period at room temperature, luminescence background was recorded, and compounds and control ligands were added at 10X concentration. Immediately after compound addition, luminescence was read over a 45 min period to detect compounds stimulating cAMP release through receptor activation. […] For each assay, luminescence responses were recorded in triplicate and repeated with four independant cell batches. […] Cellular viability was assessed using a CellTiter Glo 2.0 kit (Promega). […] 2X cell lysis media was then added and end-point luminescence recorded after a 10 min stabilization time.

[8] = schistosomulae, secondary screen, 24h exposure, read at D1, 1 µM
[9] = schistosomulae, 1h exposure, read at D1, 10 µM
[10] = schistosomulae, 1h exposure, read at D5, 10 µM
[11] = schistosomulae, 3h exposure, read at D1, 10 µM
[12] = schistosomulae, 3h exposure, read at D5, 10 µM
[13] = schistosomulae, 6h exposure, read at D1, 10 µM
[14] = schistosomulae, 6h exposure, read at D5, 10 µM
[15] = schistosomulae, secondary screen, 24h exposure, read at D1, 10 µM
[16] = schistosomulae, secondary screen, 24h exposure, read at D5, 10 µM
[17] = schistosomulae, secondary screen, 24h exposure, read at D5, 1 µM
[18] = 120 h, Selleckchem customized library secondary screen, 24h, D5, 1 µM
[19] = Selleckchem customized library secondary screen, 24h, D1, 10 µM
[20] = Selleckchem customized library secondary screen, 24h, D5, 10 µM

CC(C)C[C@@H](C=O)NC(=O)[C@H](CC(C)C)NC(=O)[C@H](CC(C)C)NC(=O)OCc1ccccc1 [MG-132] (Cbz-Leu-Leu-Leu-aldehyde)
fewer parasites migrated to the lung compared to control animals (schistosomes [1]): 65%

O=[N+]([O-])C=Cc1ccc2c(c1)OCO2 [MNS, 3,4-methylenedioxy-β-nitrostyrene]
inhibition of Sm5HTR 5-HT-evoked signals (Sm5HTR): ≥ 50%
Phenotype [2]: blebbing, dark, granulated
activity at 1 µM ([3]; 120 h, schistosomulae, secondary screen, 24h exposure, read at D5, 1 µM): 103%
activity at 1 µM [3, 8]: 241%
Fractional motility [3, 9]: -0.95
Fractional motility [3, 10]: -0.06
Fractional motility [3, 11]: -0.96
Fractional motility [3, 12]: -0.87
Fractional motility [3, 13]: -0.83
Fractional motility [3, 14]: -0.87
Fractional motility [3, 15]: 2.46
Fractional motility [3, 16]: -0.0952
effect on luminescence evoked by forskolin [4]: significant decrease in luminescence
Fractional motility (S. mansoni adult worms; D1, Female adult worms): -0.14
Fractional motility (S. mansoni adult worms; D1, Male adult worms): -0.40
Fractional motility (S. mansoni adult worms; D5, Female adult worms): -0.83
Fractional motility (S. mansoni adult worms; D5, Male adult worms): -0.55
viability at 10 µM [5]: 43%

Cc1ccc(S(=O)(=O)c2ccc([N+](=O)[O-])o2)cc1 [NSC697923]
reduction of ATP released by cells (Glo HEK293 cells): 48.1 ± 5.7%
inhibition of Sm5HTR 5-HT-evoked signals (Sm5HTR): ≥ 50%
Viability (%) [2]: 0%
Phenotype [2]: dark, granulated
Fractional motility [3, 9]: -0.93
Fractional motility [3, 10]: -1.00
Fractional motility [3, 11]: -1.00
Fractional motility [3, 12]: -0.99
Fractional motility [3, 13]: -0.93
Fractional motility [3, 14]: -0.99
Fractional motility [3, 8]: -0.18
Fractional motility [3, 15]: 3.05
Fractional motility [3, 17]: -0.90
Fractional motility [3, 16]: -1.00
effect on luminescence evoked by forskolin [4]: significant decrease in luminescence
motility phenotype in words (S. mansoni adult worms; adults, long-term after washout): Significant hypomotility
Fractional motility (S. mansoni adult worms; D1, Female adult worms): 0.25
Fractional motility (S. mansoni adult worms; D1, Male adult worms): 0.30
Fractional motility (S. mansoni adult worms; D5, Female adult worms): -0.95
Fractional motility (S. mansoni adult worms; D5, Male adult worms): -0.78

Fc1ccc([C@@H]2CCNC[C@H]2COc2ccc3c(c2)OCO3)cc1 [Paroxetine]
Phenotype [2]: granulated
activity at 1 µM [3, 18]: 256%
Fractional motility [3, 19]: 55.45
Fractional motility [3, 20]: 1.54
motility phenotype in words ([3]; schistosomulae): high levels of hypermotility
Fractional motility (S. mansoni adult worms; D1, Female adult worms): 0.47
Fractional motility (S. mansoni adult worms; D1, Male adult worms): 1.07
Fractional motility (S. mansoni adult worms; D5, Female adult worms): -0.42
Fractional motility (S. mansoni adult worms; D5, Male adult worms): -0.49
viability at 10 µM [5]: 90%
EC50 (adult schistosomes; female worms): 11.9 µM
EC50 (adult schistosomes; male worms): 2.7 µM

O=[N+]([O-])c1ccc2c(c1)S(=O)(=O)C=C2 [Stattic]
inhibition of Sm5HTR 5-HT-evoked signals (Sm5HTR): ≥ 50%
Viability (%) [2]: 0%
Phenotype [2]: big, dark, granulated
Fractional motility [3, 9]: -0.71
Fractional motility [3, 10]: -0.69
Fractional motility [3, 11]: -0.97
Fractional motility [3, 12]: -1.00
Fractional motility [3, 13]: -0.91
Fractional motility [3, 14]: -0.99
Fractional motility [3, 8]: 0.84
Fractional motility [3, 15]: 1.23
Fractional motility [3, 17]: -0.47
Fractional motility [3, 16]: -0.96
effect on luminescence evoked by forskolin [4]: significant decrease in luminescence
Fractional motility (S. mansoni adult worms; D1, Female adult worms): 0.39
Fractional motility (S. mansoni adult worms; D1, Male adult worms): -0.03
Fractional motility (S. mansoni adult worms; D5, Female adult worms): -0.90
Fractional motility (S. mansoni adult worms; D5, Male adult worms): 0.23

Cc1ccc(Sc2ccccc2N2CCNCC2)c(C)c1 [Vortioxetine]
inhibition at 10 µM (SmD2; HEK293, SmD2 cells, 10 μM compound, 50 μM EPN, read-out: inhibition of EPN-evoked luminescence): ≥ 50%
IC50 (SmD2; inhibition of EPN-evoked luminescence, SmD2 expressing HEK293 cells, read-out: IC50): 3.68 µM
effect on viability of schistosomulae in words ([2]; 24 h incubation, five days): schistosomulicidal
Phenotype [2]: big, granulated
activity at 1 µM [3, 18]: 60%
Fractional motility [3, 19]: 55.99
Fractional motility [3, 20]: -0.42
motility phenotype in words ([3]; schistosomulae): high levels of hypermotility
inhibition of EPN-evoked luminescence ([4]; 50 μM EPN): ≥ 50%
Fractional motility (S. mansoni adult worms; D1, Female adult worms): 2.64
Fractional motility (S. mansoni adult worms; D1, Male adult worms): 2.15
Fractional motility (S. mansoni adult worms; D5, Female adult worms): 0.24
Fractional motility (S. mansoni adult worms; D5, Male adult worms): 1.01
viability at 10 µM [5]: 10%

CC(C)C[C@H](NC(=O)[C@H](Cc1ccccc1)NC(=O)c1cnccn1)B(O)O [bortezomib]
reduction of worm motility (schistosomes [6]): > 85%
reduction of proteasome activity (proteasome): > 75%
motility reduction (schistosomes [7]): > 90%

CC(C)C[C@H](NC(=O)[C@H](CCc1ccccc1)NC(=O)CN1CCOCC1)C(=O)N[C@@H](Cc1ccccc1)C(=O)N[C@@H](CC(C)C)C(=O)[C@@]1(C)CO1 [carfilzomib]
reduction of worm motility (schistosomes [6]): > 85%
reduction of proteasome activity (proteasome): > 75%
motility reduction (schistosomes [7]): > 90%

NCCc1c[nH]cn1 [histamine]
EC50 (SmGPR2): 12.5 ± 1.5 µM
